Converted amounts (≈) assume the structure as drawn.
Columns and labels:
[1] = Selectivity index, HC50 for hemolytic activity in rabbit RBC to MIC for antibacterial activity against methicillin-resistant Staphylococcus aureus ATCC 33591; assay type: toxicity; conditions: rabbit red blood cells (RBC), read-out: Selectivity Index
Escherichia coli [2] = test: Antibacterial activity against Escherichia coli ATCC25922 assessed as reduction in microbial growth after 24 hrs by broth dilution method; assay type: functional; conditions: ATCC 25922
Staphylococcus aureus [3] = test: Antibacterial activity against Staphylococcus aureus ATCC 6538 assessed as reduction in microbial growth after 24 hrs by broth dilution method; assay type: functional
Klebsiella pneumoniae = test: Antibacterial activity against Klebsiella pneumoniae ATCC 700603 assessed as reduction in microbial growth after 24 hrs by broth dilution method; assay type: functional
Escherichia coli [4] = test: Antibacterial activity against Escherichia coli ATCC25922 assessed as zone of inhibition incubated for 12 hrs by disc diffusion method; assay type: functional, ATCC 25922
Staphylococcus aureus [5] = test: Antibacterial activity against Staphylococcus aureus ATCC 6538 assessed as zone of inhibition incubated for 12 hrs by disc diffusion method; assay type: functional
[6] = Hemolytic activity in rabbit RBC measured after 1 hrs by microplate reader assay; assay type: toxicity, cell-based, Oryctolagus cuniculus, Erythrocyte; conditions: rabbit red blood cells (RBC)
Staphylococcus aureus [7] = test: Antibacterial activity against methicillin-resistant Staphylococcus aureus ATCC 33591 assessed as MIC incubated for 12 hrs

Structure (SMILES): C#Cc1ccc(NC(=O)[C@@H](N)CC(C)C)cc1
- selectivity ratio [1]: 158
- MIC (Escherichia coli [2]): 10 µg/mL
- MIC (Staphylococcus aureus [3]): 5 µg/mL
- MIC (Klebsiella pneumoniae): 10 µg/mL
- diameter of the inhibition zone (DIZ) (Escherichia coli [4]): 14.5 mm
- diameter of the inhibition zone (DIZ) (Staphylococcus aureus [5]): 17.7 mm
- HC50 at 1 h [6]: 789 µg/mL
- MIC (Staphylococcus aureus [7]): 10 µg/mL (≈ 43.4 µM)

Structure (SMILES): C[C@H]1COc2c(N3CCN(C)CC3)c(F)cc3c(=O)c(C(=O)O)cn1c23.C[C@H]1COc2c(N3CCN(C)CC3)c(F)cc3c(=O)c(C(=O)O)cn1c23.O [LEVOFLOXACIN]
- MIC (Escherichia coli [2]): 2.5 µg/mL
- MIC (Staphylococcus aureus [3]): 1.25 µg/mL
- MIC (Klebsiella pneumoniae): < 0.63 µg/mL
- MIC (Staphylococcus aureus [7]): 1.25 µg/mL

Structure (SMILES): C#Cc1ccc(NC(=O)[C@@H](N)Cc2c[nH]c3ccccc23)cc1
- selectivity ratio [1]: > 16
- MIC (Escherichia coli [2]): 156 µg/mL
- MIC (Staphylococcus aureus [3]): 78 µg/mL
- MIC (Klebsiella pneumoniae): 156 µg/mL
- diameter of the inhibition zone (DIZ) (Escherichia coli [4]): 6.5 mm
- diameter of the inhibition zone (DIZ) (Staphylococcus aureus [5]): 10 mm
- HC50 at 1 h [6]: > 1250 µg/mL
- MIC (Staphylococcus aureus [7]): 78 µg/mL (≈ 257 µM)

Structure (SMILES): CC(C)[C@H](N)C(=O)Nc1ccc(F)cc1
- selectivity ratio [1]: > 4
- MIC (Escherichia coli [2]): 312 µg/mL
- MIC (Staphylococcus aureus [3]): 312 µg/mL
- MIC (Klebsiella pneumoniae): 312 µg/mL
- diameter of the inhibition zone (DIZ) (Escherichia coli [4]): 6 mm
- diameter of the inhibition zone (DIZ) (Staphylococcus aureus [5]): 6 mm
- HC50 at 1 h [6]: > 1250 µg/mL

Structure (SMILES): C#Cc1cccc(NC(=O)[C@H](N)C(C)C)c1
- selectivity ratio [1]: > 125
- MIC (Escherichia coli [2]): 39 µg/mL
- MIC (Staphylococcus aureus [3]): 10 µg/mL
- MIC (Klebsiella pneumoniae): 20 µg/mL
- diameter of the inhibition zone (DIZ) (Escherichia coli [4]): 10 mm
- diameter of the inhibition zone (DIZ) (Staphylococcus aureus [5]): 11.5 mm
- HC50 at 1 h [6]: > 1250 µg/mL
- MIC (Staphylococcus aureus [7]): 20 µg/mL (≈ 92.5 µM)

Structure (SMILES): CCCCCCNC(=O)[C@@H](N)C(C)C
- selectivity ratio [1]: 10
- MIC (Escherichia coli [2]): 20 µg/mL
- MIC (Staphylococcus aureus [3]): 39 µg/mL
- MIC (Klebsiella pneumoniae): 78 µg/mL
- diameter of the inhibition zone (DIZ) (Escherichia coli [4]): 16.4 mm
- diameter of the inhibition zone (DIZ) (Staphylococcus aureus [5]): 12 mm
- HC50 at 1 h [6]: 392 µg/mL
- MIC (Staphylococcus aureus [7]): 78 µg/mL (≈ 389 µM)

Structure (SMILES): C#Cc1ccc(NC(=O)[C@@H](N)C(C)CC)cc1 (stereo partly specified)
- selectivity ratio [1]: 20.8
- MIC (Escherichia coli [2]): 20 µg/mL
- MIC (Staphylococcus aureus [3]): 39 µg/mL
- MIC (Klebsiella pneumoniae): 39 µg/mL
- diameter of the inhibition zone (DIZ) (Escherichia coli [4]): 12.3 mm
- diameter of the inhibition zone (DIZ) (Staphylococcus aureus [5]): 12 mm
- HC50 at 1 h [6]: 813 µg/mL
- MIC (Staphylococcus aureus [7]): 39 µg/mL (≈ 169 µM)

Structure (SMILES): CC(C)[C@H](N)C(=O)Nc1ccc(Cl)cc1
- selectivity ratio [1]: > 16
- MIC (Escherichia coli [2]): 156 µg/mL
- MIC (Staphylococcus aureus [3]): 78 µg/mL
- MIC (Klebsiella pneumoniae): 156 µg/mL
- diameter of the inhibition zone (DIZ) (Escherichia coli [4]): 10 mm
- diameter of the inhibition zone (DIZ) (Staphylococcus aureus [5]): 10.9 mm
- HC50 at 1 h [6]: > 1250 µg/mL
- MIC (Staphylococcus aureus [7]): 78 µg/mL (≈ 344 µM)

Structure (SMILES): CC(C)[C@H](N)C(=O)Nc1ccc(I)cc1
- selectivity ratio [1]: 39.7
- MIC (Escherichia coli [2]): 39 µg/mL
- MIC (Staphylococcus aureus [3]): 20 µg/mL
- MIC (Klebsiella pneumoniae): 39 µg/mL
- diameter of the inhibition zone (DIZ) (Staphylococcus aureus [5]): 17.6 mm
- HC50 at 1 h [6]: 794 µg/mL
- MIC (Staphylococcus aureus [7]): 20 µg/mL (≈ 62.9 µM)

From ChEMBL document CHEMBL5038623, “Synthesis and bioactivities of new N-terminal dipeptide mimetics with aromatic amide moiety: Broad-spectrum antibacterial activity and high antineoplastic activity” (Eur J Med Chem, 2022)
